From US20220119355A1, “SATURATED-RING-FUSED DIHYDROPYRIMIDINONE OR DIHYDROTRIAZINONE COMPOUNDS AND PHARMACEUTICAL USE THEREOF” (Japan Tobacco Inc., priority 2018, published 2022)

Experiments:
[1] = target: T1, mouse RORγ (Mus musculus, UniProt P51450); assay: In-vitro reporter gene assay for inhibitory activity against RORγ transcription, Test Method A (GAL4-mRORγ LBD / pG5-Luc in CHO cells); assay type: cell-based; conditions: luciferase reporter, 2 days
T1 construct: from Ile251 to Lys516 for mouse RORγ; expressed in transfected cells; host or cells: CHO cells (transient co-transfection with pG5-Luc)
T1 sequence (P51450 251-516): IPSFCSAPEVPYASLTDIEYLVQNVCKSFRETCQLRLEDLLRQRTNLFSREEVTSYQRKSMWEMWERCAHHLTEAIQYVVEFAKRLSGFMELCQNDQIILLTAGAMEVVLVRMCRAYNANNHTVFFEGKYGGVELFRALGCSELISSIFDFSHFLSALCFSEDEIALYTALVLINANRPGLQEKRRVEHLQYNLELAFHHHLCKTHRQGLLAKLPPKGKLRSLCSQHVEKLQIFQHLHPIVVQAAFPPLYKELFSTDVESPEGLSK
Method: (§1) In-Vitro Assay for Inhibitory Activity Against RORγ Transcription
(§2) Inhibitory activity against RORγ transcription was assessed for test compounds by either of the following Test Method A or B of reporter gene assay.
(§3) cDNAs encoding human and mouse RORγ ligand binding domains (LBD) were obtained based on the sequences of human RORγ (Genbank registered number NM_005060.3) and mouse RORγ (Genbank registered number NM_011281.2) (LBD sequences: from Ser253 to Lys518 for human RORγ; from Ile251 to Lys516 for mouse RORγ).
(§4) LBD cDNAs of human and mouse RORγ were inserted into pFA-CMV vector (Stratagene), which expresses GAL4-DNA binding domain fusion protein. The resulting plasmids are hereinafter referred to as GAL4-hRORγ plasmid and GAL4-mRORγ plasmid, respectively.
(§5) GAL4-hRORγ plasmid or GAL4-mRORγ plasmid was transiently co-transfected into Chinese hamster ovary cells (CHO cells) with pG5-Luc (Promega), reporter plasmid expressing firefly luciferase in a GAL4-dependent manner.
(§6) TransIT (Registered trademark) CHO Transfection Kit (Mirus) was used to co-transfect CHO cells with the plasmids. One day prior to the assay, CHO cells were suspended in HAM F-12 Nutrient medium containing 10% (v/v) fetal bovine serum and seeded at 6×10^6 cells per 175 cm^2 cell culture flask each. 54 μL of TransIT (Registered trademark) CHO reagent was added into a 15 mL tube containing 1.16 mL of HAM F-12 Nutrient medium without fetal bovine serum, and then mixed and incubated at room temperature for 10 minutes. 36 μL of a plasmid solution containing 400 ng of GAL4-hRORγ plasmid, 9000 ng of pG5-Luc plasmid, and 8600 ng of pcDNA3 plasmid were added into the tube and mixed gently. In the case of mouse assay, a plasmid solution containing 250 ng of GAL4-mRORγ plasmid, 9000 ng of pG5-Luc plasmid, and 8750 ng of pcDNA3 plasmid was added, instead. The mixture was incubated at room temperature for 10 minutes. 9 μL each of CHO Mojo Reagent were then added into each tube and mixed gently. The mixture was incubated at room temperature for 10 minutes. The resulting transfection reagent was applied to the cell culture. After incubation at 37° C., 5% CO2 for 4 hours, the plasmid-transfected CHO cells were harvested by trypsin treatment. The collected cells were resuspended in culture medium and plated into a 384-well-white plate at 8,000 cells/50 μL/well. The plate was let stand at room temperature for 1 hour and then further incubated at 37° C., 5% CO2 for 3 hours. A test compound was dissolved in DMSO to obtain a concentration of 10 mM. Each solution was serially diluted with DMSO and further diluted with culture medium just before use. The test compound solutions were added. to the cells in the plate at 8 different concentrations. The final concentration of DMSO was 0.2% (v/v). After the addition of test compound, the cells were incubated at […], 5% CO2 for 2 days.
(§7) RORγ transcriptional activity was detected as the intracellular luciferase activity using SteadyLite HTS Reporter Gene Assay System (Perkin Elmer). SteadyLite Reagent was diluted five-fold with Extension buffer (10 mM Tricine, 0.2% (w/v) bovine serum albumin, 0.02% (v/v) Tween-20) to obtain a luciferase substrate solution. After the measurement of the cell viability with Resazurin, the medium was removed in the plate and the luciferase substrate solution was added thereto. After the incubation at room temperature for 10 minutes, luminescence of each well was measured with a microplate reader. The luciferase activity derived from the luminescence count in a vehicle-control well treated with 0.2% DMSO alone was defined as 100%, and the luciferase activity after treatment with the test compound was calculated as a percentage, %-of-control, based on the value of the vehicle-control. An EC50 value of the test compound was calculated by curve fitting with GraphPad Prism. The luminescence counts at the concentration of test compound where cytotoxicity was observed were excluded from data analysis. […]

[2] = target: T2, human RORγ (Homo sapiens, UniProt P51449); assay: In-vitro reporter gene assay for inhibitory activity against RORγ transcription, Test Method A (GAL4-hRORγ LBD / pG5-Luc in CHO cells); assay type: cell-based; conditions: luciferase reporter, 2 days
T2 construct: from Ser253 to Lys518 for human RORγ; expressed in transfected cells; host or cells: CHO cells (transient co-transfection with pG5-Luc)
T2 sequence (P51449 253-518): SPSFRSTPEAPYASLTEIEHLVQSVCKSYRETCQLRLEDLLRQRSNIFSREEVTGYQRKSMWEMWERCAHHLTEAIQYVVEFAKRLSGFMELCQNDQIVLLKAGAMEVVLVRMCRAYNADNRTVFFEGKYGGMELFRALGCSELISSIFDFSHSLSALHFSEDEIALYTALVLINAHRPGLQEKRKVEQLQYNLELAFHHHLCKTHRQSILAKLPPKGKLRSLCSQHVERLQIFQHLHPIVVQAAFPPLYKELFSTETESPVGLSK
Method: as §1, §2, §3, §4, §5, §6, §7

Row | SMILES | EC50 [1] [µM] | EC50 [2] [µM]
1 | CC(C)(C)CCc1ccc(C23CCC(CO)C2=CN(CCC(=O)O)C(=O)N3)cc1Cl (single isomer, unassigned) [Example 29] | 0.103 | 0.173
2 | CC(C)(C)CCc1ccc([C@@]23CCCCC2=CN(C24CC(C(=O)O)(C2)C4)C(=O)N3)cc1Cl [Example 54, 3-{(S)-8a-[3-Chloro-4-(3,3-dimethyl-butyl)phenyl]-2-oxo-1,5,6,7,8,8a-hexahydro-2H-quinazolin-3-yl}bicyclo[1.1.1]pentane-1-carboxylic acid] | 0.035 | 0.064
3 | COC1CC[C@]2(c3ccc(CCC(C)(C)C)c(Cl)c3)NC(=O)N(CCC(=O)O)C=C2C1 (single isomer, unassigned) [Example 67] | 8.34 | 4.72
4 | CC(C)(C)CCc1ccc(C23CC(C)(C)CC2=CN(CCC(=O)O)C(=O)N3)cc1Cl (single isomer, unassigned) [Example 33] | > 3.2 | 2.96
5 | CC(C)(C)CCc1ccc(C23CCC(CCO)C2=CN(CCC(=O)O)C(=O)N3)cc1Cl (single isomer, unassigned) [Example 25] | 0.105 | 0.092
6 | CC(C)(C)CCc1ccc(C23COC(COC(C)(C)C)C2=CN(CCC(=O)O)C(=O)N3)cc1Cl (single isomer, unassigned) [Example 22] | > 8 | 16.2
7 | COC1CC[C@@]2(c3ccc(CCC(C)(C)C)c(Cl)c3)NC(=O)N(C34CC(C(=O)O)(C3)C4)C=C2C1 (single isomer, unassigned) [Example 77] | 0.031 | 0.024
8 | CC(C)(C)CCc1ccc(C23CCC(C)(C)C2=CN(c2ccc(C(=O)O)cc2)C(=O)N3)cc1Cl (single isomer, unassigned) [Example 10, 4-{7a-[3-Chloro-4-(3,3-dimethyl-butyl)phenyl]-5,5-dimethyl-2-oxo-1,2,5,6,7,7a-hexahydro-cyclopentapyrimidin-3-yl}benzoic acid] | 0.03 | 0.016
9 | CC(C)(C)CCc1ccc(C23CCC(C)(C)C2=CN(CCCC(=O)O)C(=O)N3)cc1 (racemic) [Example 2] | 0.022 | 0.03
10 | COCC1CC[C@@]2(c3ccc(CCC(C)(C)C)c(Cl)c3)NC(=O)N(C34CC(C(=O)O)(C3)C4)C=C2C1 (single isomer, unassigned) [Example 85] | 0.073 | 0.033
11 | O=C(O)CCN1C=C2CCCCC2(c2ccc(OCC3(C(F)(F)F)CC3)c(Cl)c2)NC1=O (racemic) [Example 65] | 0.16 | 1.16
12 | CC(C)(C)COc1ccc(C23CCCCC2=NNC(=O)N3)cc1Cl (racemic) [Example 36] | 0.071 | 0.435
13 | CC(C)(C)CCc1ccc([C@@]23CCCCC2=CN(CCC(=O)O)C(=O)N3)cc1Cl (single isomer, unassigned) [Example 41] | 0.013 | 0.017
14 | CC(C)(C)CCc1ccc([C@]23COC(CO)C2=CN(CCC(=O)O)C(=O)N3)cc1Cl (single isomer, unassigned) [Example 17] | > 20 | > 20
15 | CC(C)(C)CCc1ccc(C23CCCC2=CNC(=O)N3)cc1Cl (racemic) [Example 23] | 0.106 | 0.224
16 | CC(C)(C)CCc1ccc([C@]23CCC(C)(C)C2=CN(c2ccc(C(=O)O)cc2)C(=O)N3)cc1Cl (single isomer, unassigned) [Example 9] | 1.47 | 0.819
17 | CC(C)(C)CCc1ccc(C23CCC(C(F)(F)F)CC2=CN(C24CC(C(=O)O)(C2)C4)C(=O)N3)cc1Cl (single isomer, unassigned) [Example 75] | 0.038 | 0.061
18 | CC(C)(C)CCOc1ccc(C23CCCCC2=CN(CCC(=O)O)C(=O)N3)cc1Cl (racemic) [Example 61] | 0.068 | 0.106
19 | CC(C)(C)CCc1ccc(C23COC(C)(C)C2=CN(c2ccc(C(=O)O)cc2)C(=O)N3)cc1Cl (single isomer, unassigned) [Example 7] | 0.011 | 0.009

Now from value to compound:

Row | EC50 [1] [µM] | EC50 [2] [µM] | SMILES
20 | 0.039 | 0.027 | COCCC1CCC2(c3ccc(CCC(C)(C)C)c(Cl)c3)NC(=O)N(CCC(=O)O)C=C12 (single isomer, unassigned) [Example 27, 3-{7a-[3-Chloro-4-(3,3-dimethyl-butyl)phenyl]-5-(2-methoxy-ethyl)-2-oxo-1,2,5,6,7,7a-hexahydro-cyclopentapyrimidin-3-yl}propionate]
21 | 0.126 | 0.332 | CC(C)(C)CCc1ccc(C23CCCC2=CN(CCC(=O)O)C(=O)N3)cc1Cl (racemic) [Example 24]
22 | 0.021 | 0.011 | CC(C)(C)CCc1ccc([C@@]23CCCC(C)(C)C2=CN(CCC(=O)O)C(=O)N3)cc1Cl (single isomer, unassigned) [Example 38]
23 | 0.021 | 0.032 | CC(C)(C)CCc1ccc(C23CCCCC2=CN(CCC(=O)O)C(=O)N3)cc1Cl (racemic) [Example 39]
24 | 0.714 | 0.554 | CC(C)(C)CCc1ccc(C23COC(C)(C)C2=CN(CCC(=O)O)C(=O)N3)cc1Cl (single isomer, unassigned) [Example 6]
25 | 0.149 | 0.279 | CC(C)CCOc1ccc(C23CCCCC2=CN(CCC(=O)O)C(=O)N3)cc1Cl (racemic) [Example 59]
26 | 3.03 | 2.41 | COC1CC[C@]2(c3ccc(CCC(C)(C)C)c(Cl)c3)NC(=O)N(C34CC(C(=O)O)(C3)C4)C=C2C1 (single isomer, unassigned) [Example 76]
27 | 0.015 | 0.028 | C[C@@H]1CC2=CN(C34CC(C(=O)O)(C3)C4)C(=O)NC2(c2ccc(CCC(C)(C)C)c(Cl)c2)CO1 (single isomer, unassigned) [Example 72]
28 | 8.83 | > 8 | CCOC(=O)CCN1C=C2C(CN)CCCC2(c2ccc(CCC(C)(C)C)c(Cl)c2)NC1=O (racemic) [Example 47]
29 | 0.482 | 1.27 | CC(C)(C)CCc1ccc(C23CCCC(CCO)C2=CN(CCC(=O)O)C(=O)N3)cc1Cl (racemic) [Example 44]
30 | 5.51 | 3.87 | CC(C)(C)CCc1ccc([C@]23CCCC(C)(C)C2=CN(CCC(=O)O)C(=O)N3)cc1Cl (single isomer, unassigned) [Example 37]
31 | 0.027 | 0.015 | CC1CCC2(c3ccc(CCC(C)(C)C)c(Cl)c3)NC(=O)N(CCC(=O)O)C=C2C1 (single isomer, unassigned) [Example 69]
